Results as given in patent US20250205158A1, “BIODEGRADABLE LIPIDS AND FORMULATIONS FOR DELIVERY OF MRNA” (Massachusetts Institute of Technology, priority 2023, published 2025).

Columns and labels:
[1] = LNP characterization (diameter, PDI, % EE); format: physicochemical; settings: LNP formulated with the named lipid
Description: Representative LNP Characterization Data. The diameter, polydispersity index (PDI), and % EE were characterized for various LNPs.
LNP characterization. Concentration of mRNA was determined using a Quant-IT Ribogreen assay. LNPs were diluted in either native TE buffer (ThermoFisher) or denaturing TE buffer+0.5% Triton-X 100 (Millipore-Sigma) to measure the “free” and total mRNA, respectively. 100 μL of these unknowns were added to a black 96-well plate. Separately, standard curves ranging from 2 ng/μL-0 ng/μL were prepared in each of these buffers and 100 μL were added to the same 96-well plate. Finally, Quant-IT Ribogreen reagent (ThermoFisher) was diluted 1:200 in TE buffer and 100 μL of this solution was added to each of the wells. The well plate was then mixed at 400 rpm with a plate shaker for 5 mins. and the fluorescence was read with an excitation/emission of 485/535. LNPs were measured in triplicate and standards were measured in duplicate. RNA concentration in each of the unknown wells was calculated by fitting the standard curves with a linear trendline. Encapsulation efficiency (% EE) was calculated according to: […]
Dynamic light scattering and zeta potential measurements were performed using a Malvern Zetasizer system. The reported diameter and PDI were obtained from the cumulants fit of the autocorrelation function. Zeta potential measurements were performed in 0.1×PBS, pH 7.4 and calculated using the Smoluchowski approximation.

[2] = tested on: mice
Description: Evaluation of the LNPs via intramuscular injection. The in vivo potency of the ionizable lipids was screened through intramuscular injection of LNPs loaded with mRNA encoding firefly luciferase protein. These LNPs were formulated with a molar composition of (35:16:46.5:2.5) using one of the synthesized ionizable lipids, DOPE as a helper lipid, cholesterol, and DMPE-PEG respectively. mRNA-loaded LNPs were intramuscularly administered in mice at a dose of 1 μg, and expression of luciferase protein was monitored at 6 hours via IVIS bioluminescent imaging (FIG. 3). […] Without wishing to be bound by theory, increased levels of protein expression may enhance the response to vaccination.
In Vitro and In Vivo Screening of AMG Lipid Library. Following synthesis, the mRNA delivery efficacy of the AMG lipids was evaluated through both in vitro and in vivo screens. To screen the first generation of AMG lipids (FIGS. 11B and 11C), firefly luciferase (FLuc) mRNA was encapsulated into LNPs using a previously reported formulation containing ionizable lipid, 1,2-dioleoyl-sn-glycero-3-phosphoethanolamine (DOPE), cholesterol, and 1,2-dimyristoyl-rac-glycero-3-methoxypolyethylene glycol-2000 (DMG-PEG).^19 C2C12 myoblast cells were treated with these LNPs and FLuc expression was evaluated at 24 hrs. (FIG. 16). […] Each of these batches was then injected IM into the quadriceps of mice, and expression was characterized via IVIS imaging (Screen 1, FIG. 11E).
AMG lipids for enhanced mRNA delivery and improved tolerability. A rational design approach was used to further vary the ionizable lipid structure to enhance the mRNA delivery and immunogenicity. […] The lipid tail structure was varied to promote efficient LNP self-assembly while simultaneously promoting endosomal membrane disruption.^18 Monounsaturated (G41-G44) or fully saturated (GC12-GC18) lipid tails were developed. […] Without wishing to be bound by any particular theory, tail length may impact membrane fusion and endosomal escape.^10,11
Next, the headgroup was further modified to further improve delivery. Headgroups play a multifunctional role including enhancing LNP-mRNA interactions, promoting membrane-LNP fusion and endosomal escape which all contribute to mRNA delivery.^23 A series of similar aza-crown ethers were used to further investigate structure-activity relationship and enhance mRNA delivery. These headgroups featured between three and eight nitrogens linked by varying length of methylene chains. Each of these headgroups were reacted with tail G41 to synthesize a next generation of AMG lipids, which were then formulated with FLuc mRNA and evaluated for mRNA delivery following IM administration in mice (FIG. 12B).

[3] = tested on: mice; test: hEPO mRNA LNP protein production after intravenous administration; format: in vivo
[4] = tested on: PCSK9 gene; test: CRISPR-Cas9 gene editing with mRNA LNPs; format: in vivo; settings: dose of 3 mg/kg
Description: The ability of AMG1541 mRNA LNPs to induce CRISPR-Cas9 gene editing was also evaluated (FIGS. 9A-9D).

[5] = 31P NMR membrane fusion study; format: physicochemical; settings: acidic pH
Description: Structural features of AMG lipids that facilitate mRNA delivery. The factors contributing to lipid potency were evaluated. The ionization properties of AMG1541 LNPs were investigated using a previously established 6-(p-toluidino)-2-napthalenesulfonic acid (TNS) assay.^22 The pKa of AMG LNPs showing higher in vivo mRNA transfection than SM-102 ranged between pH 6.4-6.7. […] In addition to endosomal buffering, it is hypothesized that the protonated ionizable lipids within the acidic endosome bind with anionic phospholipids within the endosomal membrane, destabilizing the membrane's bilayer and promoting endosomal pore formation.^17,52 The membrane fusion properties of the ionizable lipids was evaluated via ^31P NMR. When bilayer forming DPPS vesicles were mixed with equimolar AMG lipid under acidic conditions, a bilayer to hexagonal phase transition was observed, indicating their membrane-destabilizing nature (FIG. 15D).

[6] = tested on: mice; settings: female BALB/cJ mice, 6 hours after the boost dose
[7] = in vivo; settings: C57BL/6, mouse, im
[8] = tested on: mice; test: tdTomato mRNA LNP expression in muscle and local draining lymph node (flow cytometry, IHC)
[9] = intravenous delivery of mRNA to the liver (FIG. 18), EPO in blood 6 hours
[10] = muscle, female BALB/cJ mice, IM

CCCCCC/C=C\CCCC(=O)OCC(O)CN1CCN(CC(O)COC(=O)CCC/C=C\CCCCCC)CCN(CC(O)COC(=O)CCC/C=C\CCCCCC)CCN(CC(O)COC(=O)CCC/C=C\CCCCCC)CCN(CC(O)COC(=O)CCC/C=C\CCCCCC)CCN(CC(O)COC(=O)CCC/C=C\CCCCCC)CC1 (stereo not shown) [AMG1541]
EE % ([1]; Ribogreen assay): 86.0935% | Diameter (nm) ([1]; dynamic light scattering): 85 nm | PDI ([1]; dynamic light scattering): 0.107 | fold higher expression compared to AMG104 ([2]; IM, 1 μg, 6 hours): 4.5 fold | fold higher in vivo mRNA transfection compared to SM-102 ([2]; IM, 1 μg, 6 hours): 3.5 fold | fold improvement in expression over cKK-E12 ([2]; IM, 1 μg, 6 hours): 1.7 fold | potency in intramuscular administration of mRNA compared to SM-102 and ALC-0315 ([2]; mouse, in vivo): equal or higher potency | times higher in vivo mRNA delivery compared to FDA-approved counterparts ([2]; mouse, in vivo): approximately three | hEPO expression profile in the liver, comparable to MD-1 ([3]; administered intravenously): excellent hEPO expression profile | hEPO protein expression in liver ([3]; dose range of 0.25-1 mg/kg): consistent levels of protein expression | fold higher protein expression than Lipid 5 ([3]; hEPO mRNA, 1 mg/kg dose): 3-4 fold | hEPO protein expression ([3]; higher doses beyond 2 mg/kg): reduced protein expression | expression relative to cKK-E12 ([3]; intravenous delivery of mRNA to the liver (FIG. 18)): comparable expression to cKK-E12 | fold higher expression than LP-01 [3, 9]: ~5 fold | fold higher expression than Lipid 5 [3, 9]: ~3 fold | hEPO production in liver, repeat dosing ([3]; repeat dosing over 3 weeks at 0.05-1 mg/kg): consistent hEPO production | serum PCSK9 levels [4]: significant reduction in serum PCSK9 levels | 31P NMR phase behaviour [5]: bilayer membrane to hexagonal HII transformation | fold higher serum IL-2 than in SM-102 vaccinated mice [6]: 5 fold | serum cytokine levels compared with SM-102 ([6]; except IL-2): comparable cytokine levels | half-life [7]: 3 h | expression in muscle fibers (IHC) ([8]; after IM administration): tdTomato was expressed in the muscle fibers | protein expression in the LDLN relative to SM-102 ([8]; female BALB/cJ mice, IM): significantly higher protein expression in APCs | fold higher tdTomato expression in DCs than SM-102 [8, 10]: 3.8 fold | fold higher tdTomato expression in monocytes than SM-102 [8, 10]: 22 fold
